The source of these data is patent US9363996B2, “Compositions and method for blocking ethylene response in field crops using 3-(cy-clopropyl-l-enyl)-propanoic salt” (Yissum Research Development Company of the Hebrew …, priority 2009, dated 2016).

One assay has as its system young cotton seedlings. Put plainly: Ethylene-induced leaf epinasty of young cotton seedlings. In kind it is in vivo, cotton (Gossyium hirsutum barbadense L.). On the procedure: (1) Abscission-This is a very sensitive model system for studying the effects of plant hormones. Ethylene induces the process of abscission, while auxin delays it. In the laboratory the experimental system is based on plant organ explants, which include the abscission zone. Abscission is induced by exposure to ethylene and at the termination of the experiment the number of abscised organs, usually either leaf blades or petioles are counted and the fraction of abscission is calculated. In the case of fruit, the decrease in fruit retention force is analyzed. […] The plants or explants are then further exposed for 24 h to ethylene gas (5 to 20 μL L^-1). The plants or explants are then ventilated and incubated for the required time under controlled conditions. At the end of the experiment the percentage of abscission is determined. […] Plant material (whole plants, excised leaves or leaf discs) are pretreated. […] The plants or explants are then ventilated and incubated for the required time under controlled conditions. At the end of the experiment a dimethylsulfoxide (DMSO) extract of the plant tissue is prepared, and the chlorophyll content of the extract is determined by spectrophotometric analysis. […] The extent of ethylene-induced epinasty of leaves is determined by measuring the change of the angle between the petiole and the stem shoot or blade. […]

The test system of assay [1] is young cotton leaf explants. As to the kind of experiment: Ethylene-induced petiole abscission of young cotton leaf explants. The assay is classed as in vivo, cotton (Gossyium hirsutum barbadense L.). As for the experimental part:
(1) Abscission—This is a very sensitive model system for studying the effects of plant hormones. Ethylene induces the process of abscission, while auxin delays it. In the laboratory the experimental system is based on plant organ explants, which include the abscission zone. Abscission is induced by exposure to ethylene and at the termination of the experiment the number of abscised organs, usually either leaf blades or petioles are counted and the fraction of abscission is calculated. In the case of fruit, the decrease in fruit retention force is analyzed. In cotton, when WS-CPD (the ethylene-action antagonist herein disclosed) is tested, the whole plants or explants are pretreated by spraying with the antagonist, dissolved in a phosphate buffer solution (10-20 mM, pH 7.0) including 0.1% commercially available Kinetic™ as surfactant, and left to incubate for a predetermined time, usually between 6 and 24 h. The plants or explants are then further exposed for 24 h to ethylene gas (5 to 20 μL L^−1). The plants or explants are then ventilated and incubated for the required time under controlled conditions. At the end of the experiment the percentage of abscission is determined. (2) Chlorophyll degradation—This is a standard model for studying senescence. Plant material (whole plants, excised leaves or leaf discs) are pretreated. In cotton, tobacco and wheat, when WS-CPD is tested, the whole plants or explants are pretreated by spraying with the antagonist, dissolved in phosphate buffer solution (10-20 mM, pH 7.0) including 0.1% commercially available Kinetic™ surfactant, and left to incubate for a predetermined time, usually between 6 and 241. […] At the end of the experiment a dimethylsulfoxide (DMSO) extract of the plant tissue is prepared, and the chlorophyll content of the extract is determined by spectrophotometric analysis. […] The extent of ethylene-induced epinasty of leaves is determined by measuring the change of the angle between the petiole and the stem shoot or blade. […]

Consider `O=C([O-])CCC1=CC1.[Na+]` [WS-CPD, 3-cyclopropyl-1-enyl-propanoic sodium salt], for which the ethylene-induced leaf epinasty result in the assay on young cotton seedlings (WS-CPD 10 and 30 μg mL^−1, ethylene 10 μL L^−1) was “completely reversed”. In addition, the ethylene-induced epinasty entry with young cotton seedlings (WS-CPD spray 10 to 300 μg mL^−1, 24 h later ethylene 10 μL L^−1 for 24 h, three-week-old seedlings) was “completely antagonized”. For the same compound, the “abscission percentage of explants” value in assay [1] (WS-CPD 300 μg mL^−1) was “lower than the air control treatment”. Also, the decrease of abscission entry in assay [1] (WS-CPD 10 to 30 μg mL^−1, throughout the experiment, ethylene-treated explants) was “about 20%”.
